Data taken from patent publication US20150322033A1, “ANTIBACTERIAL AGENT” (priority 2012, published 2015).
Converted amounts (≈) assume the structure as drawn. “And” between values parts separate entries of the source, which are not always exact repeats. Equal values may be shown once. Read-outs that look alike come from different tables or passages of the source.

How the values were obtained:
S. aureus Mu50 NR1-1 = assay: MIC by broth microdilution, S. aureus Mu50 NR1-1; type: cell-based; conditions: Staphylococcus aureus, MU50NR11; Example 3, Table 13; read-out: MIC (mg/L) Mu50 NR1-1 (S80F, w)
Procedure: MIC values of the flavones and quinolone for the strains were measured in the same manners as those of Example 1, except that S. aureus Mu50 NR-1 was also used as Staphylococcus aureus in addition to S. aureus FDA209P and S. aureus Mu50, cell suspensions of the strains were prepared.
S. aureus Mu50 NR1-1 mentioned in Table 13 is a strain selected stepwise from the clinically isolated S. aureus Mu50 strain with deoxynybomycin, and it has a topoisomerase IV encoded by parC in which a […] (see, Hiramatsu K. et al., J. Antimicrob. Agents, 2012, June; 39 (6), 478-85).
In Table 13, the descriptions in the parentheses after the strains indicate the mutated amino acid residue and its position, as represented by (the mutation of topoisomerase IV resulting from the mutation of parCand the mutation of DNA gyrase resulting from the mutation of gyrA). The character “w” means wild-type, representing without mutation.

GyrA(S84L) + GyrB(wt) = target: T1, GyrA(S84L) + GyrB(wt) (Staphylococcus aureus, UniProt P20831, S84L); assay: DNA cleavage assay with mutant GyrA(S84L) and GyrB(wt); type: biochemical
T1 construct: made in house; host or cells: E. coli BL21(DE3)
Excerpt: E. coliBL21(DE3) (produced by Invitrogen) was transformed with pMAL-c2-gyrA mentioned above, with pMAL-c2-gyrB mentioned above, or with pMAL-c2-SAGAmut84 containing a mutant gyrA encoding the amino acid sequence of GyrA(wt) in which serine residue at the 84th position from the amino terminus is substituted with a leucine residue (see, Hiramatsu K., Igarashi M., Morimoto Y, Baba T., Umekita M., Akamatsu Y., Int. J. Antimicrob. Agents, 2012 June; 39(6), 478-85). To the culture medium of the resulting transformed Escherichia coli, 1 mM […] (produced by Wako Pure Chemical Industries) was added to induce expression of maltose-binding GyrA(wt), maltose-binding GyrB(wt), or maltose-binding mutant GyrA(S84L), and the bacterium was cultured overnight at 25° C. After completion of the culture, the cells were collected, and suspended in a buffer (20 mM Tris-HCl (pH 8.0), 200 mM sodium chloride, 1 mM ethylenediaminetetraacetic acid (EDTA), 1 mM dithiothreitol (DTT)), a protein extracting reagent (10× BugBuster (registered trademark), produced by Novagen) in a volume of 1/10 of the volume of the buffer, and 2.5 μL/10 mL of the buffer of Benzonase (registered trademark) nuclease (produced by Novagen) were added, the mixture was left standing at 25° C. for 30 minutes, and the cells were disrupted and lysed to obtain a disrupted cell suspension containing the maltose-binding GyrA(wt), maltose-binding GyrB(wt), or maltose-binding mutant GyrA(S84L).
Then, each disrupted cell suspension mentioned above was added to a column filled with an amylose resin covalently bound with maltose (produced by Novagen). A buffer (20 mM Tris-HCl (pH 8.0), 200 mM sodium chloride, 1 mM EDTA) containing 10 mM maltose was added to the column to elute the maltose-binding GyrA(wt), maltose-binding GyrB(wt), and maltose-binding mutant GyrA(S84L).
To each eluate, 4 units/1 mL of the eluate of protease (Factor Xa, produced by Amersham) was added, and the mixture was left standing at 25° C. for 3 hours and 30 minutes to cleave the maltose-binding proteins, GyrA(wt), GyrB(wt), and mutant GyrA(S84L) from the maltose-binding GyrA(wt), maltose-binding GyrB(wt), and maltose-binding mutant GyrA(S84L).
Then, GyrA(wt), GyrB(wt), and mutant GyrA(S84L) were concentrated by using an ultrafiltration unit (YM-50 Filter Unit, produced by Millipore).
The concentrated GyrA(wt), GyrB(wt), and mutant GyrA(S84L) were each suspended in a buffer (35 mM Tris-HCl (pH 7.5), 24 mM potassium chloride, 6 mM magnesium chloride, 1.8 mM spermidine, 0.36 mg/mL bovine serum albumin, 5 mM DTT, 50 volume % glycerol) at a concentration of 1 μg/μL for GyrA(wt), 2 μg/μL for GyrB(wt), or 1 μg/μL for mutant GyrA(S84L).
An assay was performed in the same manner as that of the cleavage of the plasmid DNA with GyrA(wt) and GyrB(wt) mentioned above, provided that 0.15 μL of an enzyme solution of mutant GyrA(S84L) and 0.2 μL of the enzyme solution of GyrB(wt) were added instead of […] of the enzyme solution of GyrA(wt) and 0.2 μL of the enzyme solution of GyrB(wt). In FIGS. 3 and 4, the symbols “S”, “L”, and “N” have the same meanings as those explained for FIGS. 1 and 2.
IC50 value of levofloxacin or apigenin was also calculated from the visualized images shown in FIGS. 3 and 4 in the same manner as that used for the calculation using the results shown in FIGS. 1 and 2.
The DNA cleavage assay was performed with M-246 in the same manner as that used in Example 4.

S. aureus MS5935-1 = assay: MIC for S. aureus MS5935-1; type: cell-based; conditions: Staphylococcus aureus, MS59351
Procedure: The levofloxacin-susceptible Staphylococcus aureus strain MS5935-1 (strain in which the 80th serine residue from the amino terminus of the wild-type topoisomerase IV encoded by parC is mutated with phenylalanine residue, see, Hiramatsu K., Igarashi M., Morimoto Y, Baba T., Umekita M., Akamatsu Y., Int. J. Antimicrob. Agents, 2012 June; 39(6), 478-85) was cultured overnight at 37° C. with shaking in 4 mL of TBS (produced by Dickinson). After completion of the culture, the cells were suspended in fresh TBS, and the cell suspension was adjusted to have an absorbance of 0.3 measured at 578 nm. Then, the cell suspension was diluted 10,000 times with TBS. This diluted cell suspension was inoculated (0.1 mL each) into ten test tubes containing 4 mL each of TBS, and preculture was carried out overnight at 37° C.

Compound `C[C@H]1COc2c(N3CCN(C)CC3)c(F)cc3c(=O)c(C(=O)O)cn1c23` [Levofloxacin, levofloxacin, reference compound] has an MIC (S. aureus Mu50 NR1-1) of 1 mg/L (≈ 2.77 µM), an IC50 (GyrA(S84L) + GyrB(wt); Example 4, Table 15, from ratio of cleaved DNA, read-out: IC50 (μg/mL) GyrA(S84L) + GyrB(wt)) greater than 88.6 µM and an MIC (S. aureus MS5935-1) of 0.5 µg/mL (≈ 1.38 µM).

`O=c1cc(-c2ccc(O)cc2)oc2cc(O)cc(O)c12` [No. 7, 4′,5,7-Trihydroxyflavone] was tested, and the MIC (S. aureus Mu50 NR1-1) was greater than 128 mg/L, the “inhibitory activity against the mutant DNA gyrase” value (GyrA(S84L) + GyrB(wt); FIG. 3 and 4) was “concentration-dependent inhibitory activity” and the IC50 (GyrA(S84L) + GyrB(wt); IC50 (μg/mL) GyrA(S84L) + GyrB(wt), Example 4, Table 15, from ratio of cleaved DNA) was ~29.6 µM and 29.6 µM. It also gave an IC50 (GyrA(S84L) + GyrB(wt); IC50 mutant GyrA(S84L) and GyrB(wt), value in μM) of roughly 29.6 µM and an MIC (S. aureus MS5935-1) greater than 128 µg/mL.
